These results are taken from patent publication US5234907A, “Synthetic vasoactive intestinal peptide analogs” (Hoffmann-La Roche Inc., priority 1991, dated 1993).

In general, EC50 refers to the concentration at which the effect is half-maximal.

[ ]: non-standard residue; d: D form. 2Nal = N[C@@H](Cc1ccc2ccccc2c1)C(=O)O; NMeA = CN[C@@H](C)C(=O)O; Nle = CCCC[C@H](N)C(=O)O

One assay deals with guinea pigs. Put plainly: In vivo bronchodilator activity by tracheal instillation against histamine-induced bronchoconstriction. Set-up: species or system guinea pig. The following applies: 100 μl, anesthetized male Hartley guinea pigs, histamine challenge 50 μg/kg i.v., inhibition of tracheal pressure increase. The procedure:
The in vivo bronchodilator activity of VIP analogs in guinea pigs was assessed by the tracheal instillation route of administration. This technique utilized male guinea pigs (Hartley strain, Charles River) weighing 400-600 g. Animals were anesthetized with urethane (2 g/kg) intraperitoneally and a polyethylene cannula was inserted into the jugular vein for intravenous drug administration.
The animals were tracheotomized and dosing solutions of distilled water or test compound dissolved in distilled water were administered into the trachea, approximately three-quarter the distance to the carina with a pipette. The concentration of the dosing solution was adjusted to deliver a constant volume of 100 μl. The animals were placed supine for one minute to aid drug delivery to the lung. One minute later, spontaneous breathing was arrested with succinylcholine chloride (1.2 mg/kg) administered intravenously, and the animals were ventilized with a Harvard Model 680 small animal respirator set at 40 breaths/min and 4.0 cm^3 stoke volume. The animals were challenged with a maximal constrictory dose of histamine (50 μg/kg, i.v.) and tracheal pressure (cm of water) was recorded from a Statham pressure transducer (P 32 AA).
The change in tracheal pressure was averaged for at least 3 control and 3 drug-treated animals and percent inhibition was calculated. The relative potency of compounds administered by the instillation route was determined by administering various doses of test compound and calculating the median inhibitory dose (ID50 value). The ID50 was determined from log dose-reasons curves generated by at least 3 doses that caused inhibitory effects between 10% and 90%. The correlation coefficient for the regression line of each antagonist was always greater than 0.95.
For determination of the time course of inhibition for various compounds, the time between administration of compound and challenge with histamine was varied. The time course of activity was calculated as the time when inhibition decreased to 40%.

In assay [1] the test system is guinea pig tracheal smooth muscle. In words: Tracheal relaxant activity of VIP analogs on isolated guinea pig tracheal rings. It counts as cell-based. The following applies: cumulative concentration response; responses as % of maximum response to VIP (10^-6 M=100%); at least three tissues pooled; linear regression. The procedure: The relaxant activity of the VIP analogs was studied in a model utilizing guinea pig trachea. [Wasserman, M. A. et al., in Vasoactive Intestinal Peptide, S. I. Said, ed., Raven Press, N.Y. 1982, pp 177-184]; All tissues were taken from male albino guinea pig weighing 400-600 g, anesthesized with urethane (2 g/kg, i.p.). After exanguination, the trachea were removed and divided into four ring segments (3 mm length). Each ring was suspended by 30 gauge stainless steel wires in a 10 mL jacketed tissue bath and attached via 4-0 silk thread to a Grass force displacement transducer (model FT03C, Grass Instruments Co., Quincy, Ma), for isometric recording of tension. The smooth muscle was bathed in modified Krebs solution of the following composition: NaCl, 120 mM; KCl, 4.7 mM; CaCl2, 2.5 mM; MgSO.4 7H2 O, 1.2 mM; NaHCO3, 25 mM; K2 HPO4 monobasic, 1.2 mM; and dextrose, 10 mM. Tissue baths were maintained at 37° C. and constantly bubbled with 95% O2 and 5% CO2. Responses were recorded on an 8 channel and a 4 channel Hewlett-Packard (model 7702B and 7754A, respectively) recorder (Hewlett-Packard, Paramus, N.J.). […] Frequent readjustments of tension were required during the 60 minute stabilization period which followed. Tissues were rinsed at 15 minute intervals.
Cumulative concentration response curves were obtained for each tissue by successive […] increases in the bath concentration of VIP or VIP analogs according to the method of VanRossum [Arch. Int. Pharmacodyn., 143, 299-330 (1963)]. Only one cumulative dose response curve was obtained on a single tissue. To minimize variability between tissues, relaxant responses were expressed as a percentage of the maximum response obtained to VIP (10^-6 M=100%) added at the end of each concentration response experiment. Responses obtained from at least three tissues were pooled and EC50 values were determined by linear regression.

As for “Ac--[Lys^12, Nle^17, Ala^19, Ala^25, Leu^26, Lys^27,28 ]--VIP (Ac-HSDAVFTDNYTKLRKQ[Nle]AAKKYLNALKK-NH2; SMILES CCCC[C@H](NC(=O)[C@H](CCC(N)=O)NC(=O)[C@H](CCCCN)NC(=O)[C@H](CCCNC(=N)N)NC(=O)[C@H](CC(C)C)NC(=O)[C@H](CCCCN)NC(=O)[C@@H](NC(=O)[C@H](Cc1ccc(O)cc1)NC(=O)[C@H](CC(N)=O)NC(=O)[C@H](CC(=O)O)NC(=O)[C@@H](NC(=O)[C@H](Cc1ccccc1)NC(=O)[C@@H](NC(=O)[C@H](C)NC(=O)[C@H](CC(=O)O)NC(=O)[C@H](CO)NC(=O)[C@H](Cc1c[nH]cn1)NC(C)=O)C(C)C)[C@@H](C)O)[C@@H](C)O)C(=O)N[C@@H](C)C(=O)N[C@@H](C)C(=O)N[C@@H](CCCCN)C(=O)N[C@@H](CCCCN)C(=O)N[C@@H](Cc1ccc(O)cc1)C(=O)N[C@@H](CC(C)C)C(=O)N[C@@H](CC(N)=O)C(=O)N[C@@H](C)C(=O)N[C@@H](CC(C)C)C(=O)N[C@@H](CCCCN)C(=O)N[C@@H](CCCCN)C(N)=O) [Ac--(SEQ ID NO: 12)--NH2]”, in the assay on guinea pigs, the “Bronchodilator activity in guinea pigs, ED50” value (“Bronchodilator activity” for short) came to 0.014 µg. This substance displayed a half-maximal effective concentration (EC50) in assay [1] of 1.5 nM.
In the case of “Ac--[2-Nal^10, Lys^12, Nle^17, Ala^19, Val^26, Thr^28, Gly^29,30, Met^31 ]--VIP (Ac-HSDAVFTDN[2Nal]TKLRKQ[Nle]AAKKYLNSVLTGGM-NH2; SMILES CCCC[C@H](NC(=O)[C@H](CCC(N)=O)NC(=O)[C@H](CCCCN)NC(=O)[C@H](CCCNC(=N)N)NC(=O)[C@H](CC(C)C)NC(=O)[C@H](CCCCN)NC(=O)[C@@H](NC(=O)[C@H](Cc1ccc2ccccc2c1)NC(=O)[C@H](CC(N)=O)NC(=O)[C@H](CC(=O)O)NC(=O)[C@@H](NC(=O)[C@H](Cc1ccccc1)NC(=O)[C@@H](NC(=O)[C@H](C)NC(=O)[C@H](CC(=O)O)NC(=O)[C@H](CO)NC(=O)[C@H](Cc1c[nH]cn1)NC(C)=O)C(C)C)[C@@H](C)O)[C@@H](C)O)C(=O)N[C@@H](C)C(=O)N[C@@H](C)C(=O)N[C@@H](CCCCN)C(=O)N[C@@H](CCCCN)C(=O)N[C@@H](Cc1ccc(O)cc1)C(=O)N[C@@H](CC(C)C)C(=O)N[C@@H](CC(N)=O)C(=O)N[C@@H](CO)C(=O)N[C@H](C(=O)N[C@@H](CC(C)C)C(=O)N[C@H](C(=O)NCC(=O)NCC(=O)N[C@@H](CCSC)C(N)=O)[C@@H](C)O)C(C)C) [Ac--(SEQ ID NO: 18)--NH2]”, in the assay with guinea pigs, the “Bronchodilator activity” value was determined as 0.35 µg. For the same substance, in assay [1], the response was half-maximal at 0.24 nM (EC50).
For “Ac--[Glu^8, Lys^12, Nle^17, Ala^19, Val^26, Thr^28, Gly^29,30, Thr^31 ]--VIP (Ac-HSDAVFTENYTKLRKQ[Nle]AAKKYLNSVLTGGT-NH2; SMILES CCCC[C@H](NC(=O)[C@H](CCC(N)=O)NC(=O)[C@H](CCCCN)NC(=O)[C@H](CCCNC(=N)N)NC(=O)[C@H](CC(C)C)NC(=O)[C@H](CCCCN)NC(=O)[C@@H](NC(=O)[C@H](Cc1ccc(O)cc1)NC(=O)[C@H](CC(N)=O)NC(=O)[C@H](CCC(=O)O)NC(=O)[C@@H](NC(=O)[C@H](Cc1ccccc1)NC(=O)[C@@H](NC(=O)[C@H](C)NC(=O)[C@H](CC(=O)O)NC(=O)[C@H](CO)NC(=O)[C@H](Cc1c[nH]cn1)NC(C)=O)C(C)C)[C@@H](C)O)[C@@H](C)O)C(=O)N[C@@H](C)C(=O)N[C@@H](C)C(=O)N[C@@H](CCCCN)C(=O)N[C@@H](CCCCN)C(=O)N[C@@H](Cc1ccc(O)cc1)C(=O)N[C@@H](CC(C)C)C(=O)N[C@@H](CC(N)=O)C(=O)N[C@@H](CO)C(=O)N[C@H](C(=O)N[C@@H](CC(C)C)C(=O)N[C@H](C(=O)NCC(=O)NCC(=O)N[C@H](C(N)=O)[C@@H](C)O)[C@@H](C)O)C(C)C) [Ac--(SEQ ID NO: 15)--NH2]”, in that order: 0.064 µg and 0.55 nM.
As for “Ac--[Lys^12, Nle^17, Ala^19, Val^26, Thr^28, Ala^29-31 ]--VIP (Ac-HSDAVFTDNYTKLRKQ[Nle]AAKKYLNSVLTAAA-NH2; SMILES CCCC[C@H](NC(=O)[C@H](CCC(N)=O)NC(=O)[C@H](CCCCN)NC(=O)[C@H](CCCNC(=N)N)NC(=O)[C@H](CC(C)C)NC(=O)[C@H](CCCCN)NC(=O)[C@@H](NC(=O)[C@H](Cc1ccc(O)cc1)NC(=O)[C@H](CC(N)=O)NC(=O)[C@H](CC(=O)O)NC(=O)[C@@H](NC(=O)[C@H](Cc1ccccc1)NC(=O)[C@@H](NC(=O)[C@H](C)NC(=O)[C@H](CC(=O)O)NC(=O)[C@H](CO)NC(=O)[C@H](Cc1c[nH]cn1)NC(C)=O)C(C)C)[C@@H](C)O)[C@@H](C)O)C(=O)N[C@@H](C)C(=O)N[C@@H](C)C(=O)N[C@@H](CCCCN)C(=O)N[C@@H](CCCCN)C(=O)N[C@@H](Cc1ccc(O)cc1)C(=O)N[C@@H](CC(C)C)C(=O)N[C@@H](CC(N)=O)C(=O)N[C@@H](CO)C(=O)N[C@H](C(=O)N[C@@H](CC(C)C)C(=O)N[C@H](C(=O)N[C@@H](C)C(=O)N[C@@H](C)C(=O)N[C@@H](C)C(N)=O)[C@@H](C)O)C(C)C) [Ac--(SEQ ID NO: 10)--NH2]”, in the assay on guinea pigs, the “Bronchodilator activity” value turned out to be 0.82 µg. In addition, the concentration giving a half-maximal response (EC50) in assay [1] worked out at 0.3 nM.
For “Ac--[N--Me--Ala^1, Lys^12, Nle^17, Ala^19, ^26, Thr^28 ]--VIP (Ac-[NMeA]SDAVFTDNYTKLRKQ[Nle]AAKKYLNSVLT-NH2; SMILES CCCC[C@H](NC(=O)[C@H](CCC(N)=O)NC(=O)[C@H](CCCCN)NC(=O)[C@H](CCCNC(=N)N)NC(=O)[C@H](CC(C)C)NC(=O)[C@H](CCCCN)NC(=O)[C@@H](NC(=O)[C@H](Cc1ccc(O)cc1)NC(=O)[C@H](CC(N)=O)NC(=O)[C@H](CC(=O)O)NC(=O)[C@@H](NC(=O)[C@H](Cc1ccccc1)NC(=O)[C@@H](NC(=O)[C@H](C)NC(=O)[C@H](CC(=O)O)NC(=O)[C@H](CO)NC(=O)[C@H](C)N(C)C(C)=O)C(C)C)[C@@H](C)O)[C@@H](C)O)C(=O)N[C@@H](C)C(=O)N[C@@H](C)C(=O)N[C@@H](CCCCN)C(=O)N[C@@H](CCCCN)C(=O)N[C@@H](Cc1ccc(O)cc1)C(=O)N[C@@H](CC(C)C)C(=O)N[C@@H](CC(N)=O)C(=O)N[C@@H](CO)C(=O)N[C@H](C(=O)N[C@@H](CC(C)C)C(=O)N[C@H](C(N)=O)[C@@H](C)O)C(C)C) [Ac--(SEQ ID NO: 91)--NH2, residue before ^26 lost in print, probably Val^26]”, in that order: 1.5 µg and 2.8 nM.
As to “Ac--[Ala^2, Glu^8, Lys^12, Nle^17, Ala^19, Val^26, Thr^28, Ala^29-31 ]--VIP (Ac-HADAVFTENYTKLRKQ[Nle]AAKKYLNSVLTAAA-NH2; SMILES CCCC[C@H](NC(=O)[C@H](CCC(N)=O)NC(=O)[C@H](CCCCN)NC(=O)[C@H](CCCNC(=N)N)NC(=O)[C@H](CC(C)C)NC(=O)[C@H](CCCCN)NC(=O)[C@@H](NC(=O)[C@H](Cc1ccc(O)cc1)NC(=O)[C@H](CC(N)=O)NC(=O)[C@H](CCC(=O)O)NC(=O)[C@@H](NC(=O)[C@H](Cc1ccccc1)NC(=O)[C@@H](NC(=O)[C@H](C)NC(=O)[C@H](CC(=O)O)NC(=O)[C@H](C)NC(=O)[C@H](Cc1c[nH]cn1)NC(C)=O)C(C)C)[C@@H](C)O)[C@@H](C)O)C(=O)N[C@@H](C)C(=O)N[C@@H](C)C(=O)N[C@@H](CCCCN)C(=O)N[C@@H](CCCCN)C(=O)N[C@@H](Cc1ccc(O)cc1)C(=O)N[C@@H](CC(C)C)C(=O)N[C@@H](CC(N)=O)C(=O)N[C@@H](CO)C(=O)N[C@H](C(=O)N[C@@H](CC(C)C)C(=O)N[C@H](C(=O)N[C@@H](C)C(=O)N[C@@H](C)C(=O)N[C@@H](C)C(N)=O)[C@@H](C)O)C(C)C) [Ac--(SEQ ID NO: 19)--NH2]”, the “Bronchodilator activity” value in the assay with guinea pigs was determined as 0.47 µg. In assay [1], this substance returned a half-maximal effective concentration (EC50) of 0.23 nM.
